# Values of other authors in US20160199437A1, “THERAPEUTIC COMPOSITIONS INCLUDING IRON CHELATORS AND USES THEREOF” (priority 2015, published 2016).
# Test system: several mammalian cell types
# Conditions: energy-independent manner; cited from earlier work
substance,measurement,value
"2′,6′-Dmt-D-Arg-Phe-Lys-NH2",penetration of the plasma membrane,readily penetrates the plasma membrane
